Results published in patent publication US8268988B2, “Process for preparing an A2A-adenosine receptor agonist and its polymorphs” (Gilead Sciences, Inc., priority 2006, dated 2012).

Experiments:
[1] = stability of the polymorphs (relative humidity stress, moisture sorption/desorption, thermal analyses); type: physicochemical; conditions: for stability relative to the other polymorphs: ambient temperatures; for stability relative to the other polymorphs / stability under relative humidity stress conditions: monohydrate; for stability under relative humidity stress conditions: up to melting point
Method: Thermogravimetric (TG) analyses were carried out on a TA Instruments 2050 or 2950 thermogravimetric analyzer. The calibration standards were nickel and Alumel™. Samples were placed in an aluminum sample pan, inserted into the TG furnace, and accurately weighed. The samples were heated in nitrogen at a rate of 10° C./min to either 300 or 350° C. Unless stated otherwise, sample weights were equilibrated at 25° C. in the TGA furnace prior to analysis.
Differential scanning calorimetry (DSC) analyses were carried out on a TA Instruments differential scanning calorimeter 2920. Accurately weighed samples were placed in either crimped pans or hermetically sealed pans that contained a pinhole to allow for pressure release. Each sample was heated under nitrogen at a rate of 10° C./min to either 300 or 350° C. Indium metal was used as the calibration standard. Temperatures were reported at the transition maxima.
Moisture sorption/desorption data were collected on a VTI SGA-100 Vapor Sorption Analyzer. Sorption and desorption data were collected over a range of 5% to 95% relative humidity […] at 10% RH intervals under a nitrogen purge. Sodium chloride (NaCl) and polyvinylpyrrolidone (PVP) were used as the calibration standards. Equilibrium criteria used for analysis were less than 0.0100% weight change in 5 minutes, with a maximum equilibration time of 180 minutes if the weight criterion was not met. The plotted data have not been corrected for the initial moisture content.

[2] = cited from earlier work
[3] = biological target: A2A-adenosine receptor (Homo sapiens, UniProt P29274); conditions: result in words; cited from earlier work
Sequence of A2A-adenosine receptor (P29274 whole entry): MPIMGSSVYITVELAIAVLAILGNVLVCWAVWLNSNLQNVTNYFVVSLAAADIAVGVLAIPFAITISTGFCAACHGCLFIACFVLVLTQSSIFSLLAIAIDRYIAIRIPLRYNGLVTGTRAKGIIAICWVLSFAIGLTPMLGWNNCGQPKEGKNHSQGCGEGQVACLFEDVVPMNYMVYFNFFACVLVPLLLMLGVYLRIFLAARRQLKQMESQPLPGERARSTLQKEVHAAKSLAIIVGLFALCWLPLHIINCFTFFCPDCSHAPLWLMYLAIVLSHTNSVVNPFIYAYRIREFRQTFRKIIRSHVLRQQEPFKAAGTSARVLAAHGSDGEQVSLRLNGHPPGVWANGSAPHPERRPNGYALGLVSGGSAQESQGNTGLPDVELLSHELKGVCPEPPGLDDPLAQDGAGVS

With CNC(=O)c1cnn(-c2nc(N)c3ncn([C@@H]4O[C@H](CO)[C@@H](O)[C@H]4O)c3n2)c1.O [Form A, (1-{9-[(4S,2R,3R,5R)-3,4-dihydroxy-5-(hydroxymethyl)oxolan-2-yl]-6-aminopurin-2-yl}pyrazol-4-yl)-N-methylcarboxamide monohydrate] the “stability relative to the other polymorphs” value ([1]; listed as monohydrate) was “the most stable”, the “stability relative to the other polymorphs” value [1] was “the most stable of the various polymorphs at ambient temperatures” and the “stability under relative humidity stress conditions” value ([1]; listed as monohydrate) was “stable under relative humidity stress conditions, up to its melting point”. For the same compound, the “stability under relative humidity stress conditions” value [1] was “stable under relative humidity stress conditions up to its melting point”.
For Nc1ncnc2c1ncn2[C@@H]1O[C@H](CO)[C@@H](O)[C@H]1O [Adenosine], the “half life in humans” value [2] is given as “less than 10 seconds”.
With CNC(=O)c1cnn(-c2nc(N)c3ncn([C@@H]4O[C@H](CO)[C@@H](O)[C@H]4O)c3n2)c1 [Amorphous Material, (1-{9-[(4S,2R,3R,5R)-3,4-dihydroxy-5-(hydroxymethyl)oxolan-2-yl]-6-aminopurin-2-yl}pyrazol-4-yl)-N-methylcarboxamide] the “stability in the presence of atmospheric moisture” value ([1]; atmospheric moisture) was “unstable in the presence of atmospheric moisture, forming variable hydrates”.
For CNC(=O)c1cnn(-c2nc(N)c3ncn([C@@H]4O[C@H](CO)[C@@H](O)[C@H]4O)c3n2)c1 [Polymorph C, (1-{9-[(4S,2R,3R,5R)-3,4-dihydroxy-5-(hydroxymethyl)oxolan-2-yl]-6-aminopurin-2-yl}pyrazol-4-yl)-N-methylcarboxamide], the “behaviour at elevated temperatures” value ([1]; elevated temperatures) was “desolvates to an unstable form”.
For CNC(=O)c1cnn(-c2nc(N)c3ncn([C@@H]4O[C@H](CO)[C@@H](O)[C@H]4O)c3n2)c1 [(1-{9-[(4S,2R,3R,5R)-3,4-dihydroxy-5-(hydroxymethyl)oxolan-2-yl]-6-aminopurin-2-yl}pyrazol-4-yl)-N-methylcarboxamide], the “A2A-adenosine receptor agonist selectivity” value [3] is listed as “highly selective A2A-adenosine receptor agonist”.
